US9066516B2, “Uses of thaxtomin and thaxtomin compositions as herbicides” (priority 2008, dated 2015)

Tests used:
[1] = system: pigweed (Amaranthus sp.); assay: Pot study, % control of pigweed (Example 2); assay type: in vivo; conditions: 1.0 mg/mL
Procedure: A pot study is conducted to test the phytotoxicity of thaxtomin A on corn (Zea mays var. Early Sunglow) and wheat (Triticum aestivum var. PR1404). To confirm the activity on broadleaf weeds, pigweed (Amaranthus sp.) is planted in the same pot with either three corn or five wheat seeds, and sprayed simultaneously with the cereal test plants. The less than 3-inch tall plants grown under growth lights (12-h light/12-h dark) at 28° C. are sprayed with thaxtomin A solutions derived from a liquid culture of S. acidiscabies containing 0.5, and 1.0 mg thaxtomin A per mL of solvent (4% ethanol and 0.2% non-ionic surfactant). A solution of 4% ethanol +0.2% non-ionic surfactant without thaxtomin A is used as a control treatment. Each treatment is conducted in three replicates. Treated plants are kept at 28° C. under growth lights and observed at three time points—7, 14 and 21 days after treatment—for visual symptoms of phytotoxicity on corn and wheat and % control of pigweed.

[2] = system: small flower umbrella sedge; assay: Post-emergent MBI-005 + rice herbicides on smallflower umbrella sedge (Example 19); assay type: in vivo; conditions: 14 days
Procedure: Twenty seedlings in 2.5 cm square pots containing plant growth mix were sprayed to full coverage using a hand sprayer. Negative controls were sprayed with water. Pots were randomly placed in a growth room at 25° C. and 50% RH, and watered as necessary. Treatments were replicated three times and evaluated at 7 and 14 days for visual % damage, with 0% indicating no damage and 100% indicating plant death.
(§1) Synergy was calculated as the ratio of observed (E) to expected (E/Ee) percent control using Colby's formula.

[3] = system: sprangletop: Leptochloa uninervia; assay: Greenhouse study thaxtomin A / sarmentine (Example 9); assay type: in vivo; conditions: Thaxtomin A 0.2 mg/mL; 25 days after treatment
Procedure: (§2) A strain of S. acidiscabies was grown in oat bran broth for 5 days (25° C., 200 rpm). The whole cell broth was extracted using XAD resin, and the dried crude extract was resuspended in 4% ethanol and 0.2% non-ionic surfactant at a concentration of 10 mg/mL. The diluted extracts containing 0.2 and 0.4 mg thaxtomin A per mL were tested on three weed species (redstem; Ammania spp., smallflower umbrella sedge; Cyperus difformis and sprangletop: Leptochloa uninervia). Other treatments included sarmentine at 2.5 and 5.0 mg/mL, and a combination treatment containing 0.2 mg thaxtomin A and 2.5 mg sarmentine per mL. Each treatment was applied in three replicates. Treated plants were kept in a greenhouse under 12 h light/12 h dark conditions.

[4] = system: smallflower umbrella sedge; Cyperus difformis; assay: as above; assay type: in vivo; conditions: Thaxtomin A 0.2 mg/mL; 25 days after treatment
Procedure: as §2

[5] = system: New Zealand moss (Sagina procumbens); assay: Pre-emergence test of MBI-005, field (Example 12); assay type: in vivo; conditions: pre-emergent; note: ranges in brackets are in %
Procedure: (§3) In field testing, field soil containing weed seeds were treated with 38.2 L MBI-005/ha at a spray volume of 280 L/ha using a CO2 sprayer with flat fan nozzles. Treatments, including water as the negative control and Gallery as the positive control, were replicated four times and applied twice at a four week interval. Treatments were evaluated visually as % cover and above-ground fresh weights per container were taken.

[6] = system: Common groundsel (Senecio vulgaris); assay: Pre-emergence test of MBI-005, field (Example 12); assay type: in vivo; conditions: pre-emergent; note: ranges in brackets are in %
Procedure: as §3

[7] = system: Shepherd's purse (Capsella bursa-pastora); assay: Pre-emergence test of MBI-005, field (Example 12); assay type: in vivo; conditions: pre-emergent; note: ranges in brackets are in %
Procedure: as §3

[8] = system: Flexuous bittercress (Cardamine flexuosa); assay: Pre-emergence test of MBI-005, field (Example 12); assay type: in vivo; conditions: pre-emergent; note: ranges in brackets are in %
Procedure: as §3

[9] = system: Bittercress (Cardamine hirsuta); assay: Pre-emergence test of MBI-005, field (Example 12); assay type: in vivo; conditions: pre-emergent; note: ranges in brackets are in %
Procedure: as §3

[10] = system: Dandelion (Taraxacum oficinale); assay: Pre-emergence test of MBI-005, field (Example 12); assay type: in vivo; conditions: pre-emergent; note: ranges in brackets are in %
Procedure: as §3

[11] = system: Chickweed (Stellaria media); assay: Pre-emergence test of MBI-005, field (Example 12); assay type: in vivo; conditions: pre-emergent; note: ranges in brackets are in %
Procedure: as §3

[12] = system: Marsh watercress (Rorippa islandica); assay: Pre-emergence test of MBI-005, field (Example 12); assay type: in vivo; conditions: pre-emergent; note: ranges in brackets are in %
Procedure: as §3

[13] = system: Henbit (Lamimum amplexicaule); assay: Pre-emergence test of MBI-005, field (Example 12); assay type: in vivo; conditions: pre-emergent; note: ranges in brackets are in %
Procedure: as §3

[14] = system: Velvetleaf (Abutilon theophrasti); assay: Pre-emergence test of MBI-005, field (Example 12); assay type: in vivo; conditions: pre-emergent; note: ranges in brackets are in %
Procedure: as §3

[15] = system: Eclipta (Eclipta alba); assay: Pre-emergence test of MBI-005, field (Example 12); assay type: in vivo; conditions: pre-emergent; note: ranges in brackets are in %
Procedure: as §3

[16] = system: Hairy galinsoga (Galinsoga ciliata); assay: Pre-emergence test of MBI-005, field (Example 12); assay type: in vivo; conditions: pre-emergent; note: ranges in brackets are in %
Procedure: as §3

[17] = system: Common yellow oxalis (Oxalis stricta); assay: Pre-emergence test of MBI-005, field (Example 12); assay type: in vivo; conditions: pre-emergent; note: ranges in brackets are in %
Procedure: as §3

[18] = system: crabgrass; assay: Post-emergent MBI-005 + Atrazine on crabgrass (Example 17); assay type: in vivo; conditions: for AVG E (visual % damage): 7DAT; for AVG/ E (visual % damage): 14DAT
Procedure: Ten seedlings in 2.5 cm square pots containing plant growth mix were sprayed with two suboptimal rates of MBI-005, and 35% of the atrazine label rate (0.3 gallons/A), or a combination thereof, at a volume of 40 gal/A using a cabinet track sprayer. Negative controls were sprayed with water. Pots were randomly placed in a growth room at 25° C. and 50% RH, and watered as necessary. Treatments were replicated five times and evaluated at 7 and 14 days for visual % damage, with 0% indicating no damage and 100% indicating plant death.
as §1

[19] = system: mono and dicotyledonous seedlings; conditions: cited from earlier work
[20] = in vivo; cited from earlier work
[21] = system: crabgrass; assay: Greenhouse synergy test MBI-005 + field crop herbicides (Example 11); assay type: in vivo; conditions: 14 days
Procedure: […] other herbicides commonly used for field crops, glyphosate, glufosinate, synthetic version of bialaphos, and mesotrione were also tested for synergy with MBI-005 on crabgrass and ragweed.
There were 3 replicates per treatment which were sprayed with approximately ⅔ ml per replicate. The treatments were completely randomized and kept in a greenhouse at 25° C. The efficacy was rated at 7 and 14 days post treatment.

[22] = system: sorghum (Sorghum bicolor); assay: Phytotoxicity on sorghum plants (Example 3); assay type: in vivo; conditions: 0.5 and 1.0 mg thaxtomin A/mL, three weeks after the treatment
Procedure: To test the phytotoxicity of thaxtomin A on sorghum plants, five seeds of sorghum (Sorghum bicolor) are planted in each 4″×4″ plastic pot filled with soil. Plants were grown under optimal conditions in a greenhouse before and after treatment with solutions containing 0.5 and 1.0 mg thaxtomin A/mL. At the time of the treatment, the plants are about 3 inches tall. Each treatment is applied in three replicates, and a control treatment included plants treated with just the carrier (4% EtOH, 0.02% polysorbate 60 POE (20) sorbitan monostearate). Evaluations for phytotoxicity are performed at 7-day intervals starting one week after treatment.

[23] = 12.5% MBI-005 Label Rate (0.125 mg/mL)
[24] = 25% MBI-005 Label Rate (0.25 mg/mL)

**Q.** What does the source list for `CN1C(=O)[C@](O)(Cc2cccc(O)c2)N(C)C(=O)[C@@H]1Cc1c[nH]c2cccc([N+](=O)[O-])c12` [thaxtomin A]?
**A.** control of pigweed [1]: complete control; % Control MBI-005 ([2]; MBI-005 0.5% of the label rate (Bispyribac-sodium line)): 3.3%; % Control MBI-005 ([2]; MBI-005 2.0% of the label rate (Penoxsulam line)): 20.0%; % Control MBI-005 ([2]; MBI-005 2.0% of the label rate (Propanil line)): 20.0%; % Control MBI-005 ([2]; MBI-005 2.0% of the label rate (Thiobencarb line)): 20.0%; Control of sprangletop (%) [3]: 8.3ab %; Control of sedge (%) [4]: 48.3b %; Rating at 0.1 mg/ml (Reduction of Germination) [5]: ++++ (95-100); Rating at 0.1 mg/ml (Reduction of Germination) [6]: ++++ (95-100); Rating at 0.1 mg/ml (Reduction of Germination) [7]: ++++ (95-100); Rating at 0.1 mg/ml (Reduction of Germination) [8]: ++ (60-84); Rating at 0.1 mg/ml (Reduction of Germination) [9]: +++ (85-94); Rating at 0.1 mg/ml (Reduction of Germination) [10]: ++++ (95-100); Rating at 0.1 mg/ml (Reduction of Germination) [11]: ++++ (95-100); Rating at 0.1 mg/ml (Reduction of Germination) [12]: ++++ (95-100); Rating at 0.1 mg/ml (Reduction of Germination) [13]: +++ (85-94); Rating at 0.1 mg/ml (Reduction of Germination) [14]: ++ (60-84); Rating at 0.1 mg/ml (Reduction of Germination) [15]: ++ (60-84); Rating at 0.1 mg/ml (Reduction of Germination) [16]: +++ (85-94); Rating at 0.1 mg/ml (Reduction of Germination) [17]: ++++ (95-100); AVG E (visual % damage) [18, 23]: 10.0%; AVG E (visual % damage) [18, 24]: 11.9%; AVG/ E (visual % damage) [18, 23]: 10.0%; AVG/ E (visual % damage) [18, 24]: 11.9%; concentration causing cell swelling, necrosis and growth inhibition [19]: less than 1 uM; activity as pre and post emergent, non-systemic herbicides [20]: marked activity; % Control MBI-005 ([21]; MBI-005 0.125 mg/mL (glufosinate line)): 20.0%; % Control MBI-005 ([21]; MBI-005 0.125 mg/mL (glyphosate line)): 28.3%; phytotoxicity [22]: no phytotoxicity is observed
